Test results as given in PubChem BioAssay AID2060908 (Molecular Pharmacology Branch, DTP, NCI, 2025).

Tested on: 186277-243-T-J2-PDC complex spheroids, viability
Assay: Anticancer human tumor 186277-243-T-J2-PDC patient-derived colon adenocarcinoma cell line growth inhibition [RAS]
Conditions: for IC50: curve of first compound; for viability, T/C: stronger effect = lower value
Summary of the method: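 Agents were tested in combination matrices in half-log decrements from a top concentration at or near clinical Cmax (10 microM if undetermined). Targets were multi-cell spheroids of tumour lines plus HUVEC and MSC stromal cells.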

[1] = second compound 0.000949 µM, first compound 0.00316 µM
[2] = second compound 0.000949 µM, first compound 0.01 µM
[3] = second compound 0.000949 µM, first compound 0.0316 µM
[4] = second compound 0.000949 µM, first compound 0.1 µM
[5] = second compound 0.000949 µM, first compound 0.316 µM
[6] = second compound 0.000949 µM, first compound 1 µM
[7] = second compound 0.003 µM, first compound 0.00316 µM
[8] = second compound 0.003 µM, first compound 0.01 µM
[9] = second compound 0.003 µM, first compound 0.0316 µM
[10] = second compound 0.003 µM, first compound 0.1 µM
[11] = second compound 0.003 µM, first compound 0.316 µM
[12] = second compound 0.003 µM, first compound 1 µM
[13] = second compound 0.00949 µM, first compound 0.00316 µM
[14] = second compound 0.00949 µM, first compound 0.01 µM
[15] = second compound 0.00949 µM, first compound 0.0316 µM
[16] = second compound 0.00949 µM, first compound 0.1 µM
[17] = second compound 0.00949 µM, first compound 0.316 µM
[18] = second compound 0.00949 µM, first compound 1 µM
[19] = second compound 0.03 µM, first compound 0.00316 µM
[20] = second compound 0.03 µM, first compound 0.01 µM
[21] = second compound 0.03 µM, first compound 0.0316 µM
[22] = second compound 0.03 µM, first compound 0.1 µM
[23] = second compound 0.03 µM, first compound 0.316 µM
[24] = second compound 0.03 µM, first compound 1 µM
[25] = second compound 0.0949 µM, first compound 0.00316 µM
[26] = second compound 0.0949 µM, first compound 0.01 µM
[27] = second compound 0.0949 µM, first compound 0.0316 µM
[28] = second compound 0.0949 µM, first compound 0.1 µM
[29] = second compound 0.0949 µM, first compound 0.316 µM
[30] = second compound 0.0949 µM, first compound 1 µM
[31] = second compound 0.3 µM, first compound 0.00316 µM
[32] = second compound 0.3 µM, first compound 0.01 µM
[33] = second compound 0.3 µM, first compound 0.0316 µM
[34] = second compound 0.3 µM, first compound 0.1 µM
[35] = second compound 0.3 µM, first compound 0.316 µM
[36] = second compound 0.3 µM, first compound 1 µM
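Also: spheroids exposed to compounds for 7 days before viability read.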

Question: Which IC50 (second compound 0.000949 µM) does the source give for `C=CC(=O)Nc1cc(Nc2nccc(-c3cn(C)c4ccccc34)n2)c(OC)cc1N(C)CCN(C)C` + CCn1c(-c2cccnc2C(C)OC)c2c3cc(ccc31)N1CCOC(CC(NC(=O)C(C(C)C)N(C)C(=O)C3(F)CCN(C(=O)C#CC(C)(C)N(C)C)CC3)C(=O)N3CCCC(N3)C(=O)OCC(C)(C)C2)C1 here?
Answer: Its IC50 is over 1000 nM.

Question: And the IC50 (second compound 0.003 µM)?
Answer: The IC50 was over 1000 nM.

Question: What about the IC50 (second compound 0.00949 µM) of the same molecule?
Answer: The IC50 was over 1000 nM.

Question: And the IC50 (second compound 0.03 µM)?
Answer: The IC50 was over 1000 nM.

Question: What about the IC50 (second compound 0.0949 µM) of the same molecule?
Answer: The IC50 was over 1000 nM.

Question: What about the IC50 (second compound 0.3 µM) of the same molecule?
Answer: Its IC50 is over 1000 nM.

Question: What about the viability, T/C [1] of the same molecule?
Answer: The viability, T/C was 94.2%.

Question: And the viability, T/C [2]?
Answer: Its viability, T/C is 86.9%.

Question: And the viability, T/C [3]?
Answer: Its viability, T/C is 90.4%.

Question: What about the viability, T/C [4] of the same molecule?
Answer: Its viability, T/C is 83.8%.

Question: And the viability, T/C [5]?
Answer: The viability, T/C was 103%.

Question: And the viability, T/C [6]?
Answer: Its viability, T/C is 95.7%.

Question: And the viability, T/C [7]?
Answer: Its viability, T/C is 101%.

Question: What about the viability, T/C [8] of the same molecule?
Answer: Its viability, T/C is 107%.

Question: And the viability, T/C [9]?
Answer: The viability, T/C was 107%.

Question: And the viability, T/C [10]?
Answer: The viability, T/C was 109%.

Question: What about the viability, T/C [11] of the same molecule?
Answer: Its viability, T/C is 110%.

Question: What about the viability, T/C [12] of the same molecule?
Answer: Its viability, T/C is 91.6%.

Question: What about the viability, T/C [13] of the same molecule?
Answer: Its viability, T/C is 116%.

Question: What about the viability, T/C [14] of the same molecule?
Answer: The viability, T/C was 107%.

Question: What about the viability, T/C [15] of the same molecule?
Answer: The viability, T/C was 111%.

Question: What about the viability, T/C [16] of the same molecule?
Answer: Its viability, T/C is 104%.

Question: What about the viability, T/C [17] of the same molecule?
Answer: Its viability, T/C is 121%.

Question: What about the viability, T/C [18] of the same molecule?
Answer: The viability, T/C was 81%.

Question: What about the viability, T/C [19] of the same molecule?
Answer: Its viability, T/C is 96.9%.

Question: And the viability, T/C [20]?
Answer: Its viability, T/C is 97.4%.

Question: What about the viability, T/C [21] of the same molecule?
Answer: Its viability, T/C is 106%.

Question: What about the viability, T/C [22] of the same molecule?
Answer: Its viability, T/C is 91.8%.

Question: What about the viability, T/C [23] of the same molecule?
Answer: The viability, T/C was 101%.

Question: What about the viability, T/C [24] of the same molecule?
Answer: Its viability, T/C is 82.2%.

Question: And the viability, T/C [25]?
Answer: The viability, T/C was 109%.

Question: And the viability, T/C [26]?
Answer: The viability, T/C was 123%.

Question: And the viability, T/C [27]?
Answer: The viability, T/C was 119%.

Question: What about the viability, T/C [28] of the same molecule?
Answer: Its viability, T/C is 123%.

Question: What about the viability, T/C [29] of the same molecule?
Answer: Its viability, T/C is 106%.

Question: What about the viability, T/C [30] of the same molecule?
Answer: Its viability, T/C is 78.3%.

Question: And the viability, T/C [31]?
Answer: The viability, T/C was 105%.

Question: What about the viability, T/C [32] of the same molecule?
Answer: Its viability, T/C is 105%.

Question: And the viability, T/C [33]?
Answer: The viability, T/C was 109%.

Question: What about the viability, T/C [34] of the same molecule?
Answer: Its viability, T/C is 103%.

Question: What about the viability, T/C [35] of the same molecule?
Answer: Its viability, T/C is 82.8%.

Question: What about the viability, T/C [36] of the same molecule?
Answer: The viability, T/C was 73.1%.

Question: With `O=C(c1ccc(F)c(F)c1Nc1ccc(I)cc1F)N1CC(O)([C@@H]2CCCCN2)C1` + CCn1c(-c2cccnc2C(C)OC)c2c3cc(ccc31)N1CCOC(CC(NC(=O)C(C(C)C)N(C)C(=O)C3(F)CCN(C(=O)C#CC(C)(C)N(C)C)CC3)C(=O)N3CCCC(N3)C(=O)OCC(C)(C)C2)C1 as the molecule, how does the IC50 (second compound 0.000949 µM) read?
Answer: The IC50 was 96.5 nM.

Question: And the IC50 (second compound 0.003 µM)?
Answer: The IC50 was 91.5 nM.

Question: What about the IC50 (second compound 0.00949 µM) of the same molecule?
Answer: Its IC50 is 86.5 nM.

Question: What about the IC50 (second compound 0.03 µM) of the same molecule?
Answer: The IC50 was 90.9 nM.

Question: What about the IC50 (second compound 0.0949 µM) of the same molecule?
Answer: The IC50 was 74.2 nM.

Question: What about the IC50 (second compound 0.3 µM) of the same molecule?
Answer: Its IC50 is 54 nM.

Question: And the viability, T/C [1]?
Answer: Its viability, T/C is 98.9%.

Question: And the viability, T/C [2]?
Answer: Its viability, T/C is 102%.

Question: What about the viability, T/C [3] of the same molecule?
Answer: Its viability, T/C is 99.6%.

Question: What about the viability, T/C [4] of the same molecule?
Answer: The viability, T/C was 48.2%.

Question: What about the viability, T/C [5] of the same molecule?
Answer: Its viability, T/C is 9.52%.

Question: What about the viability, T/C [6] of the same molecule?
Answer: Its viability, T/C is 4.41%.

Question: And the viability, T/C [7]?
Answer: Its viability, T/C is 82.9%.

Question: And the viability, T/C [8]?
Answer: The viability, T/C was 94.6%.

Question: What about the viability, T/C [9] of the same molecule?
Answer: The viability, T/C was 87.5%.

Question: And the viability, T/C [10]?
Answer: Its viability, T/C is 46.5%.

Question: And the viability, T/C [11]?
Answer: The viability, T/C was 10.4%.

Question: And the viability, T/C [12]?
Answer: The viability, T/C was 3.64%.

Question: And the viability, T/C [13]?
Answer: The viability, T/C was 91.7%.

Question: What about the viability, T/C [14] of the same molecule?
Answer: Its viability, T/C is 105%.

Question: What about the viability, T/C [15] of the same molecule?
Answer: Its viability, T/C is 89.4%.

Question: And the viability, T/C [16]?
Answer: The viability, T/C was 44.2%.

Question: What about the viability, T/C [17] of the same molecule?
Answer: The viability, T/C was 9.08%.

Question: And the viability, T/C [18]?
Answer: Its viability, T/C is 4.42%.

Question: What about the viability, T/C [19] of the same molecule?
Answer: The viability, T/C was 100%.

Question: And the viability, T/C [20]?
Answer: Its viability, T/C is 93.9%.

Question: And the viability, T/C [21]?
Answer: Its viability, T/C is 98.9%.

Question: And the viability, T/C [22]?
Answer: Its viability, T/C is 45.7%.

Question: What about the viability, T/C [23] of the same molecule?
Answer: The viability, T/C was 9.74%.

Question: What about the viability, T/C [24] of the same molecule?
Answer: Its viability, T/C is 4.04%.

Question: What about the viability, T/C [25] of the same molecule?
Answer: The viability, T/C was 121%.

Question: What about the viability, T/C [26] of the same molecule?
Answer: The viability, T/C was 114%.

Question: What about the viability, T/C [27] of the same molecule?
Answer: The viability, T/C was 86.9%.

Question: What about the viability, T/C [28] of the same molecule?
Answer: The viability, T/C was 37.3%.

Question: And the viability, T/C [29]?
Answer: Its viability, T/C is 9.15%.

Question: And the viability, T/C [30]?
Answer: Its viability, T/C is 3.51%.

Question: What about the viability, T/C [31] of the same molecule?
Answer: Its viability, T/C is 119%.

Question: And the viability, T/C [32]?
Answer: The viability, T/C was 101%.

Question: What about the viability, T/C [33] of the same molecule?
Answer: Its viability, T/C is 72.7%.

Question: What about the viability, T/C [34] of the same molecule?
Answer: Its viability, T/C is 25.3%.

Question: What about the viability, T/C [35] of the same molecule?
Answer: Its viability, T/C is 6.5%.

Question: And the viability, T/C [36]?
Answer: The viability, T/C was 2.7%.
